Test results taken from US20190265231A1, “GPCR (GPR113) INVOLVED IN FAT, FATTY ACID AND/OR LIPID-ASSOCIATED TASTE AND USE IN ASSAYS FOR IDENTIFYING TASTE MODULATORY” (SENOMYX, INC., priority 2015, published 2019).

How the values were obtained:
GPR113 KO mice = assay: brief-access licking paradigms in WT and GPR113 KO mice; format: in vivo; conditions: for licking response of GPR113 KO mice compared with WT: GPR113 KO versus WT; for licking in response to increasing concentrations: WT mice
Protocol: FIG. 10 contains mean (±SE) number of licks taken to a range of soybean oil concentrations and the vehicle emplex measured during 5-second trials in wild-type (WT; closed circles) and GPR113 knockout (KO; open circles) mice.
Several groups of mice underwent behavioral testing. […] We also tested groups of mice in brief-access licking paradigms. […] Mineral oil was tested as a control for viscosity.

GLX mice = assay: brief access licking after glossopharyngeal nerve transection (GLX); format: in vivo; conditions: C57Bl/6 mice, GLX versus SHAM
Protocol: C57Bl/6 mice (Harlan) were trained to lick in the brief access licking. Following training mice were balanced for body weight and average number of licks per trial to water during training and assigned to a surgery group. Mice were allowed to recover for at least two weeks following surgery. They were given two days of licking to water (shutter training), food was taken away overnight and they were tested for their licking responses to soybean oil in […] over 2 days of testing. The next week they were tested in the same manner to sucrose. Following the last day of testing, mice were euthanized and their tongues were taken for histological analysis. CV papilla were cross sectioned and stained with hematoxylin/eosin. An observer blind to the surgical condition counted taste buds.

Structure (SMILES): O=C(O)CC(O)(CC(=O)O)C(=O)O [citric acid]
- licking response of GPR113 KO mice compared with WT (GPR113 KO mice): responded similarly

Structure (SMILES): [Cl-].[K+] [KCl]
- licking response of GPR113 KO mice compared with WT (GPR113 KO mice): responded similarly

Structure (SMILES): C=C[C@H]1C[N@@]2CC[C@H]1C[C@H]2[C@H](O)c1ccnc2ccc(OC)cc12 [quinine]
- licking response of GPR113 KO mice compared with WT (GPR113 KO mice): responded similarly

Structure (SMILES): CCCCC/C=C\C/C=C\CCCCCCCC(=O)O [linoleic acid]
- licking response of GPR113 KO mice compared with WT (GPR113 KO mice): absent or significantly diminished
- licking in response to increasing concentrations (GPR113 KO mice): increased licking

Structure (SMILES): OC[C@H]1O[C@@](CO)(O[C@H]2O[C@H](CO)[C@@H](O)[C@H](O)[C@H]2O)[C@@H](O)[C@@H]1O [sucrose]
- licking response of GPR113 KO mice compared with WT (GPR113 KO mice): responded similarly
- concentration-dependent licking in GLX mice relative to SHAM operated controls (GLX mice): identical increases in licking

Structure (SMILES): CCCCCCCC/C=C\CCCCCCCC(=O)O [oleic acid]
- licking response of GPR113 KO mice compared with WT (GPR113 KO mice): absent or significantly diminished
- licking in response to increasing concentrations (GPR113 KO mice): increased licking

Structure (SMILES): [Cl-].[Na+] [NaCl]
- licking response of GPR113 KO mice compared with WT (GPR113 KO mice): responded similarly
